Holding throughout (format): functional
For test [1], the target named is T1, Sentrin-specific protease 6 (Homo sapiens, UniProt Q9GZR1).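 Further: Luminescence-based dose-response confirmatory assay of SENP6 inhibition, following up an ultra-high-throughput screen.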
T1 sequence (Q9GZR1 whole entry): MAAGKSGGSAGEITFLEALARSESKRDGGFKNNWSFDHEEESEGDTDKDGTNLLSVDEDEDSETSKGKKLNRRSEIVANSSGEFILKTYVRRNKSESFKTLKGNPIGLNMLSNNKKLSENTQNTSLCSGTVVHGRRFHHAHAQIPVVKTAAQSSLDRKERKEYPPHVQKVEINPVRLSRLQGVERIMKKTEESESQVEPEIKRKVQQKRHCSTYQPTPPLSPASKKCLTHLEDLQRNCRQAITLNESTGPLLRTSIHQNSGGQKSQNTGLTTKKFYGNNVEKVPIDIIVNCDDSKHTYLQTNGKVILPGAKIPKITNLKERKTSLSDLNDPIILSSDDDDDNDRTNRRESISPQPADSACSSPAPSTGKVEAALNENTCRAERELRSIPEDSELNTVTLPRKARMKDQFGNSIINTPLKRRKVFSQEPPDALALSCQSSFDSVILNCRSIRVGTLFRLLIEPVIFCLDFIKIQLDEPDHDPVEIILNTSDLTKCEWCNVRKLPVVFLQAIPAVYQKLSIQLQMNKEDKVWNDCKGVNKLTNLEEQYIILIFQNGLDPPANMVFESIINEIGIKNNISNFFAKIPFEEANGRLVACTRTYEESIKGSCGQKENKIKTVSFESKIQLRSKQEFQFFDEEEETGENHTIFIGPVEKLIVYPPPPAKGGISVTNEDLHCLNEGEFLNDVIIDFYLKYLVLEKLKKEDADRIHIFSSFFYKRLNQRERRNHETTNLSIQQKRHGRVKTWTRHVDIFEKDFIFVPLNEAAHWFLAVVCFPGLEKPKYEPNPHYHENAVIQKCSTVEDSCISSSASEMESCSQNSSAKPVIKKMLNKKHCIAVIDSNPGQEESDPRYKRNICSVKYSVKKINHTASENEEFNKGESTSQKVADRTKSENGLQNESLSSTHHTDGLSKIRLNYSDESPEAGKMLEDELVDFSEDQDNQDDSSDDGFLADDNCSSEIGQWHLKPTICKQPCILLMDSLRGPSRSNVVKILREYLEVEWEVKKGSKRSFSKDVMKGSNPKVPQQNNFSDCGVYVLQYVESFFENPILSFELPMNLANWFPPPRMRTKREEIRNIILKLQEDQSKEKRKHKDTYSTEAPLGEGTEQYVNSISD

Test [2] has as its target T2, Sentrin-specific protease 7 (Homo sapiens, UniProt Q9BQF6).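 Further: Luminescence-based dose-response confirmation of ultra-high-throughput screening hits, measuring inhibition of SENP7.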
T2 sequence (Q9BQF6 whole entry): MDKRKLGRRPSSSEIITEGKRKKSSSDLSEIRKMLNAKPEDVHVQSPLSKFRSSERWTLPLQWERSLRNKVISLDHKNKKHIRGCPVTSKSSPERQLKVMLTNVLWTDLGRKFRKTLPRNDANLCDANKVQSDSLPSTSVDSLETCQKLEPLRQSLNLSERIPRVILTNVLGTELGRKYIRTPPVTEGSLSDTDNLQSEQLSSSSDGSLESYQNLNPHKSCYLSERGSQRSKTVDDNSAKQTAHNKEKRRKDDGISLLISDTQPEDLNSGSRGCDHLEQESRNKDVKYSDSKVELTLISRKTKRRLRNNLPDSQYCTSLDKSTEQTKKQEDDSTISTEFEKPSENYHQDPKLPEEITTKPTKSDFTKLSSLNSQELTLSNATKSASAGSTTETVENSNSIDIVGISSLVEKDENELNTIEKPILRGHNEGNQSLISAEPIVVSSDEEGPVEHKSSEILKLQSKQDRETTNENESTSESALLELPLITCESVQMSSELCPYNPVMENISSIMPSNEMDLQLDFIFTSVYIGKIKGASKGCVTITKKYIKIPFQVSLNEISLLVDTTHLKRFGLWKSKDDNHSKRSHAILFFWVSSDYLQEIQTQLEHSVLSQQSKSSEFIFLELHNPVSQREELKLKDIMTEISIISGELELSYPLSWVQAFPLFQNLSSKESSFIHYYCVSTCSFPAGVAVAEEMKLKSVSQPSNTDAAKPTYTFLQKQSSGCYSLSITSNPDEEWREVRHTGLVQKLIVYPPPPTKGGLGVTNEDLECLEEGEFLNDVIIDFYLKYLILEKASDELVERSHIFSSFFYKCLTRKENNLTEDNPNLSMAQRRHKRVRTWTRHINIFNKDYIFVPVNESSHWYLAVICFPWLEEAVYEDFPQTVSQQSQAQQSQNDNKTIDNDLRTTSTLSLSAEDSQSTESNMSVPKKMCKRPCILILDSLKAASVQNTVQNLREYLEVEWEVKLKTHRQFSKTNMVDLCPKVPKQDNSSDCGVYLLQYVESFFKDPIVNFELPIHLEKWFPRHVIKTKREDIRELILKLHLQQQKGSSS

For test [3], the target named is T3, Sentrin-specific protease 8 (Homo sapiens, UniProt Q96LD8).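 Further: luminescence read-out of SENP8 inhibition, dose-response confirmation following an ultra-high-throughput screen.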
T3 sequence (Q96LD8 whole entry): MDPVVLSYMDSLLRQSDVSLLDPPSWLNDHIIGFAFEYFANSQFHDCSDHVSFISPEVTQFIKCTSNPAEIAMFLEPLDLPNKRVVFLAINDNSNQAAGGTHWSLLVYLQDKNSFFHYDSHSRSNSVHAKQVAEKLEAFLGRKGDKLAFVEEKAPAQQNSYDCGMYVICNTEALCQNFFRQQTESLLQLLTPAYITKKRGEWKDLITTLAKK

The target in another test is T4, Caspase-3 (Homo sapiens, UniProt P42574).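 Further: Dose-response selectivity test against caspase-3 for candidate inhibitors of sentrin-specific proteases (SENPs).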
T4 sequence (P42574 whole entry): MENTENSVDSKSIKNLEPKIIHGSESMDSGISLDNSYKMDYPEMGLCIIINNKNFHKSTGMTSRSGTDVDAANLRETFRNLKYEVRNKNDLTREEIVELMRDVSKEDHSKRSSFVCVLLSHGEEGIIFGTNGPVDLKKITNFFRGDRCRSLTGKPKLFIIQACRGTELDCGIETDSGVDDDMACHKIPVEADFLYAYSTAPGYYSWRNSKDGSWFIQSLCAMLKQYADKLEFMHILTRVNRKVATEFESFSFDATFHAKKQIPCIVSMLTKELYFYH

For test [4], the target named is T5, High affinity choline transporter 1 (Homo sapiens, UniProt Q9GZV3).
T5 sequence (Q9GZV3 whole entry): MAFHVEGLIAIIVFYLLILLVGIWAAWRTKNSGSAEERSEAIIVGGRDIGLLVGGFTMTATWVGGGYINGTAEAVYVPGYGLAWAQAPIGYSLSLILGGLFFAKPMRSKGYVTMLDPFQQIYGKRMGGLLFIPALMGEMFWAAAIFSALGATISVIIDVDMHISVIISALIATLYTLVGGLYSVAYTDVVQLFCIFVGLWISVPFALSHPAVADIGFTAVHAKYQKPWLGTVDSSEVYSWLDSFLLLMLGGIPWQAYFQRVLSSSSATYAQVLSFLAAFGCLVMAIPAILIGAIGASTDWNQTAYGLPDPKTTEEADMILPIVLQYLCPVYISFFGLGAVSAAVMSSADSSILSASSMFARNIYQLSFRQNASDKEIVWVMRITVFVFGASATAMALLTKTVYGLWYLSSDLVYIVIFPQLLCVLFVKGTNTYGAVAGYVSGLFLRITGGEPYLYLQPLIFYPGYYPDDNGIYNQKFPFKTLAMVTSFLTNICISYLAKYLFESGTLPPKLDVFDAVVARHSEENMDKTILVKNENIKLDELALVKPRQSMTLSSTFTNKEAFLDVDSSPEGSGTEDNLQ
Description: human choline transporter blockers, potency – cell-based, 5-point CRC, membrane potential dye, dose response (AID 504840).

In test [5] the target is T6, Microphthalmia-associated transcription factor (Homo sapiens, UniProt O75030).
T6 sequence (O75030 whole entry): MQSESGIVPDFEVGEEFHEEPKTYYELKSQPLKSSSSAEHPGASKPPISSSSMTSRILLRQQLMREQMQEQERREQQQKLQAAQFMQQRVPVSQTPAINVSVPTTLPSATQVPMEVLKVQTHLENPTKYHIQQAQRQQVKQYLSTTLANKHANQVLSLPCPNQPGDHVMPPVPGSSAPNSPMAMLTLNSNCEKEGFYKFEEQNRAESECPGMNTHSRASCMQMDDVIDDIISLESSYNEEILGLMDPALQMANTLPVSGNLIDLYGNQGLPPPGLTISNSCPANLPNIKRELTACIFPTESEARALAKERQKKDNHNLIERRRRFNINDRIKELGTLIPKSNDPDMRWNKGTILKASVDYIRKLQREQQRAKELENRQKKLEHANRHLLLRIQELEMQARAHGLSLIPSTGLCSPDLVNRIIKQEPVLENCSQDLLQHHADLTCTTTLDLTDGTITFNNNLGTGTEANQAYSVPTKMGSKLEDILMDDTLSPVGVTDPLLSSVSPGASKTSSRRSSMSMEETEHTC
Description: reducers of TRPM1 reporter luminescence, concentration series – cell-based, SK-MEL-5, cherry-picked, set 3, MITF inhibitor project, dose response (AID 493073).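 Further: SK-MEL-5 melanoma cells with luciferase driven by the MITF target TRPM1 promoter.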

The target in test [6] is T7, Replicative DNA helicase DnaB (Mycobacterium tuberculosis, UniProt P9WMR3).
T7 sequence (P9WMR3 whole entry): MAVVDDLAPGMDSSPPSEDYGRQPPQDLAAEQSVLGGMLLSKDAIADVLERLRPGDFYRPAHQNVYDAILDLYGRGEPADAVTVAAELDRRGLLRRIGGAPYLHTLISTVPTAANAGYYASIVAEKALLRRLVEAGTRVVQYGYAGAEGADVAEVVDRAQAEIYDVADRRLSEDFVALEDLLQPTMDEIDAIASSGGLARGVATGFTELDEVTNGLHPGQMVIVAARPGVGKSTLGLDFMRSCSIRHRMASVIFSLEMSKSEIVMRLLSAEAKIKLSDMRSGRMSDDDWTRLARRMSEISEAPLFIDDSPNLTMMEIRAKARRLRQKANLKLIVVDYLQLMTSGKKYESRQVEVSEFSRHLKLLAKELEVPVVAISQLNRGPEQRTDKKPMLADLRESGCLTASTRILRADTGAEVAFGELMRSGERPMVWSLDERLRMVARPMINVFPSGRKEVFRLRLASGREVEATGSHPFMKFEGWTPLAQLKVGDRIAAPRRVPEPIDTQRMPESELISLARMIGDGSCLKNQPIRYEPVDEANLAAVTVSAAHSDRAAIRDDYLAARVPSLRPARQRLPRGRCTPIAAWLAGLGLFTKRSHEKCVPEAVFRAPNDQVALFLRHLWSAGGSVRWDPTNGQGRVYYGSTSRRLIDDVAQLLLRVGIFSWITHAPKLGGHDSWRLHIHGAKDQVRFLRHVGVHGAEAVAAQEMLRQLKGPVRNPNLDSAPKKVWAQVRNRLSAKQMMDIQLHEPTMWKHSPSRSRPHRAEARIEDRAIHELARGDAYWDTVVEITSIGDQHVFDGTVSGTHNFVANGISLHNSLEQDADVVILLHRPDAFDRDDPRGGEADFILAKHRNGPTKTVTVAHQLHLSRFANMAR
Description: DnaB intein splicing inhibitors, dose response, biochemical, cell-free fluorescence (AID 449749).

A further test has as its target T8, Protein RecA (Mycobacterium tuberculosis, UniProt P9WHJ3).
T8 sequence (P9WHJ3 whole entry): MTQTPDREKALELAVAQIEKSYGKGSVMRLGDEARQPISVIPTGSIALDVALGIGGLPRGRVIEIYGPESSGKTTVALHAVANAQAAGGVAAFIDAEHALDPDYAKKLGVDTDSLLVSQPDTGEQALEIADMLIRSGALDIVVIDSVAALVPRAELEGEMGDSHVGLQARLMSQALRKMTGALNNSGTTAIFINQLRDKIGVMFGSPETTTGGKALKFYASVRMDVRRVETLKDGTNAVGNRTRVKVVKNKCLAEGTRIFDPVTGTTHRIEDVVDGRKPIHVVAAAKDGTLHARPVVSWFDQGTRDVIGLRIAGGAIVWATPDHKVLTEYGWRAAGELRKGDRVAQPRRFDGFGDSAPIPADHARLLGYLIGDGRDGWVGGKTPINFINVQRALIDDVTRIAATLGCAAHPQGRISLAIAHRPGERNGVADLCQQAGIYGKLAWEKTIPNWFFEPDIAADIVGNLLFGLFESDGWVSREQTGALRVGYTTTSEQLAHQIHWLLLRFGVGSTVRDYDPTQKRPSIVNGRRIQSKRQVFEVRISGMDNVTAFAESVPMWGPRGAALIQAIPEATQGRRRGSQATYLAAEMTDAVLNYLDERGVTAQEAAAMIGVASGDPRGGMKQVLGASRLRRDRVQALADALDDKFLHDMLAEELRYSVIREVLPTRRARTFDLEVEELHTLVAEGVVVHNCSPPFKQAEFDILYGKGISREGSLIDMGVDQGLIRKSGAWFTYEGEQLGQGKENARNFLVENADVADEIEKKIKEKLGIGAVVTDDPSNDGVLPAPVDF
The experiment in a line: Fluorescence Cell-Free Homogeneous Dose Retest to Identify Inhibitors of RecA-Intein Splicing Activity. [Related pubchem assays (depositor defined):AID2097, AID2223, AID489010, AID492950].

This is an account of results in ChEMBL document CHEMBL1201862, “PubChem BioAssay data set” (2004).

The term IC50 denotes the point on the concentration scale where inhibition reaches its midpoint. For orientation: AC50 means the concentration giving half of the maximal activity seen. In general, EC50 refers to the concentration at which the effect is half-maximal.

Activity calls are given as the source filed them.

Take `Nc1ccc(/C=C/c2ccc3ncccc3c2)cc1`: the concentration for half-maximal inhibition (IC50) was 9.32 µM (active) in test [1], 10.4 µM (active) in test [2], > 100 µM (inactive) in test [3] and 22.8 µM (active) on Caspase-3.
As to `Cc1oc(-c2ccccc2)cc1C(=O)Nc1cccc(/C=C\C(=O)O)c1`, the half-maximal inhibitory concentration (IC50) in test [4] is 11.2 µM (active).
Same read-out and setting: next, `N=C(N)Nc1nc(C2COc3ccccc3O2)cs1` (stereo not given): 12.6 µM (active); `CN1CCN(C(=O)CCCN2C(=O)/C(=C/c3ccccc3)SC2=S)CC1`: 13.5 µM (active).
Regarding `CCN(Cc1ccc(OC)c(F)c1)C(=O)CCl`, the results for the half-maximal activity concentration (AC50) in test [5] and in test [6] were 3.36 µM (active) and 162 µM (active), respectively. At Protein RecA, the EC50 was 5.37 µM (active).
Turning to `CCOC(=O)c1cc(NC(=O)c2ccoc2C)cc(C(=O)OCC)c1`, in test [4], the half-maximal inhibitory concentration (IC50) was 14.5 µM (active).
With `CC(=O)Nc1ccc(C(=O)COC(=O)C2CCCCC2)c(F)c1`, the IC50 in test [1] was 20.4 µM (active); in test [2], 6.32 µM (active); in test [3] it was 65.6 µM (active); at Caspase-3 it was 17.5 µM (active).
